Data reported in patent EP0942896B1, “SUBSTITUTED PHENOLS AND THIOPHENOLS USEFUL AS ANTIOXIDANT AGENTS” (Aventis Pharmaceuticals Inc., priority 1996, dated 1998).
Read-outs that look alike come from different tables or passages of the source.

Key:
[1] = Animal parameters (food, body weight, liver weight/body weight) in cholesterol-fed rabbits; format: in vivo, Female New Zealand White rabbits; settings: % of control, diet 0.4%, 7 days, 0.2% cholesterol chow, N = 5
Text: (§1) Perform five independent experiments in the following manner. Each study has a control group and 1-5 groups treated with MDL compound (N = 5 per group). Feed Female New Zealand White rabbits (Hazelton, ∼ 2.0-2.3 kg) 0.2% cholesterol enriched rabbit chow (Purina #5322) with or without 0.4% MDL compound. Solubilize the MDL compounds in 100% ethanol. Spray the chow with the MDL mixtures and allow to dry overnight in a chemical fume hood. Spray control chow with ethanol. Feed rabbits 100 grams food per day for 7 days (0.6% MDL 103,491 were fed for 14 days); make available water ad libitum. On day 7, bleed (~ 2 mL) rabbits (fasted overnight) from a marginal ear vein. Euthanize rabbits by carbon dioxide overdose. Record the total body and liver weights in grams. Record food as grams • day^-1 · rabbit^-1. Use aliquots of fresh serum for clinical chemistries, lipoprotein cholesterol determination, thiobarbituric acid reactive substances (TBARS) and compound and metabolite concentrations in serum. Freeze livers (∼ 5 gram aliquots) at -20°C for compound and metabolite concentration determination at a later time.

[2] = HPLC quantitation of compound and metabolite concentration in rabbit serum and liver; format: in vivo, Female New Zealand White rabbits; settings: female, New Zealand White, oral, 0.4 % in chow, diet 0.4%, 7 days, mean N = 5
Text: as §1
Determine serum and liver concentrations of parent compounds and the metabolites, bisphenol and diphenoquinone, by reverse phase HPLC using a Waters 990 Powerline system. […] Calculate compound concentrations from known quantities of authentic parent compounds after correction for recovery. […]

VCAM-1 = assay: Inhibition of VCAM-1 expression in proliferating human umbilical vein endothelial cells (cell ELISA); format: cell-based; settings: HUVEC, coincubated with tumor necrosis factor-alpha about 20 to 24 hr, average of three runs, numbers in parentheses represent negative values, read-out: VCAM-1 (% inh. 50 µM)
Description: Plate proliferating human umbilical vein endothelial cells (HUVEC) or human aortic smooth muscle cells (HASMC) from Clonetics (San Diego, CA) onto 96-well plates in 100 µL medium per well at 20,000 cells per cm^2. Maintain the cultures in growth medium (EGM or SMGM2, Clonetics, San Diego, CA) for two days prior to addition of cytokines or drugs. Add cytokines plus or minus compounds for 20 to 24 hours prior to analysis for adhesion molecule levels. Add tumor necrosis factor (Genzyme, Cambridge, MA) to cultures at 500-1000 units/mL to stimulate ICAM-1 expression. Add interleukin-4 (GIBCO-BRL, Gaithersburg, MD) to cultures at 100-200 pg/mL to stimulate VCAM-1 expression. […] Remove the culture medium, and wash the monolayers twice with Hanks buffered saline solution (HBSS) at room temperature. Add the primary antibody (anti-human VCAM-1 from Upstate Biotechnology, Inc., Lake Placid, NY or anti-human ICAM-1 from Immunotech, Inc., Westbrook, ME) to each well (1 µg/mL in HBSS plus 5% newborn calf serum, GIBCO-BRL, Gaithersburg, MD) and incubate at 37°C for 1 hr. Wash the wells twice with HBSS, then add 100 µL of a 1/1000 dilution of goat anti-mouse IgG conjugated to horse radish peroxidase (BioRad, Hercules, CA) in HBSS plus 5% newborn calf serum to each well and incubated for 1 hr at 37°C. […] Measure absorbance at 450 nm with a plate reader. […]

oxidation of lipids = assay: Conjugated diene lag phase determination on pooled serum of treated rats; format: in vivo, Male Sprague-Dawley rats; settings: not normalized, mean of 2 determinations of pooled rat serum (N = 5), diet 0.3%, 4 days
Text: A typical experiment consists of 4-6 groups of rats (N = 5 per group) with I group being a control which receives no MDL compound and the other groups being treated with 0.3% MDL compound. Some of the compounds are either repeated at 0.3% or evaluated again at the lower dose of 0.1%. House Male Sprague-Dawley rats, 50-100 g, (Harlan Laboratories, Indianapolis, IN) in groups of 5, feeding ad libitum water and Purina Rodent chow (#5002) with or without MDL compound as a dietary admixture for 4 days. Make dietary admixtures (0.3%) by mixing 1.2 grams of an MDL compound with 400 grams of Purina rodent chow (#5002). Mix the MDL compound with approximately 50 grams of food using a mortar and pestle. This is added to the remainder of the food and mixed for 3 hours on a rotary mixer. In the morning of day 5, anesthetize non-fasted rats with carbon dioxide, and collect blood by cardiac puncture. Sacrifice rats by cervical dislocation. Record body weights and liver weights in grams. Record food consumption as grams • day^-1 • rat^-1. Deaths are recorded as mortality. Use aliquots of fresh serum for clinical chemistries, thiobarbituric acid reactive substances (TBARS) and conjugated diene measurements. Freeze aliquots of serum (∼ 0.5mL) and whole livers at -20°C for compound and metabolite concentration determination at a later time.
Conjugated diene lag phase is another indicator of the oxidation of lipids. Lipids exposed to Cu^++ form conjugated dienes that absorb ultraviolet light in the range of 230 to 235 nm. The lag phase of diene formation gives an indication of the amount of oxidation of the lipids. A lag phase longer than control samples indicate inhibition of the oxidation. Determine conjugated diene lay phase using a Varian DMS200 spectrophotometer (fitted with a constant temperature, 5 cuvette sample changer) at 30°C. Add twenty (20) µL of pooled serum to cuvettes containing 3.0mL phosphate buffered saline, pH 7.5, and mix. Measure the absorbances of all cuvettes and set the instrument baseline to zero using the lowest absorbing sample. Next, add 100µL of 1 mmol CuSO4 and mix immediately. Record the absorbance of each cuvette at 2 min intervals for a period of 840 min. Capture the data and transfer to a Microsoft EXCEL® spreadsheet where the curves are smoothed and differentials obtained. Determine lag times mathematically as minutes. Pool serum samples (N = 5); data presented are the mean values of 2 determinations. Compare serum samples from treated rats to serum samples from control rats that received no MDL compound.

| SMILES | food ([1]; grams eaten per day per rabbit) [%] | lw/bw ([1]; liver weight / body weight) [%] | body wt. ([1]; weight in grams) [%] | concentration at 7 day ([2]; parent compound concentration in rabbit liver, read-out: Liver Parent) [ng/g] | concentration at 7 day ([2]; parent compound concentration in rabbit serum, read-out: Serum Parent) [ng/mL] | inhibition at 50 µM (VCAM-1) [%] | CONJ. DIENE (oxidation of lipids) [min] |
| --- | --- | --- | --- | --- | --- | --- | --- |
| CC(C)=CCC[C@H](C)CCOc1cc(C(C)(C)C)c(O)c(C(C)(C)C)c1 [MDL 103,294, Phenol, 2,6-bis(1,1-dimethylethyl)-4-[(3,7-dimethyl-6-octenyl)oxy]-, (S)-] | 103 | 105 | 100 | 77000 | 19800 |  |  |
| CC(C)=CCCC(C)CCSc1cc(C(C)(C)C)c(O)c(C(C)(C)C)c1 (stereo not drawn) [MDL 103,960, Phenol, 2,6-bis(1,1-dimethylethyl)-4-[(3,7-dimethyl-6-octenyl)thio]-] |  |  |  |  |  | 25.7 | 363 |
| CC(C)CCCC(C)CCOc1ccc(O)c(C(C)(C)C)c1 (stereo not drawn) [MDL 104,191, Phenol, 2-(1,1-dimethylethyl)-4-[(3,7-dimethyloctyl)oxy]-] |  |  |  |  |  | 34.3 | 708 |
